# Source: article PMC12526212, “Novel Isolongifolenone-Based Caprolactam Derivatives as Potential Anticancer Agents via the p53/mTOR/Autophagy Pathway” (Molecules, 2025)
# What was measured:
# [1] = tested on: MCF-7; experiment: CCK-8 antiproliferative assay, MCF-7; format: cell-based; conditions: Homo sapiens, MCF7; CCK-8, 48 h, mean ± SD of three experiments; read-out: IC50 MCF-7
# Method: After synthesis and characterization, the isolongifolenone bicyclocaprolactam derivatives were evaluated for their in vitro antiproliferative activity against three cancer cell lines (MCF-7, HepG2, A549) using a CCK-8 assay. […] In general, the antiproliferative activities of most of these compounds were similar, irrespective of whether electron-withdrawing or electron-donating substituents were introduced in the phenoxy ring.
# Three cancer cell lines (human breast adenocarcinoma cells MCF-7, human lung adenocarcinoma epithelial cells A549, and human hepatocellular carcinoma cells HepG2) were obtained from the Cell Bank of the Chinese Academy of Sciences (Shanghai, China). LO2 human normal liver cells were also purchased from STEM RECELL (Beijing, China, STM-CL-5770). The anti-proliferation activity of compounds was tested on three cancer cell lines. The cytotoxicity of compounds as tested on normal cell line (human normal liver cells LO2). Cells were seeded at a density of 5000 cells per well in 96-well plates. Natural product piperlongumine was used as the positive control. All experiments were performed in triplicate. Three cancer cell lines were cultured in High DMEM medium or RIPM 1640 containing 10% FBS (Sijiqing, Hangzhou, China) and 1% antibiotics at 37 °C in a 5% CO2 incubator. The experimental cells were seeded in a 96-well plate at 5000 cells per well and incubated for 24 h. The old medium was replaced with experimental medium, and the cells were cultured for 48 h. Afterward, 10 µL of CCK-8 solution was added to each well, and the cells were incubated for 3 h. The absorbance at 450 nm was measured using a microplate reader.
# [2] = tested on: MCF-7 cells; experiment: Intracellular ROS assay (DCFH-DA, flow cytometry); format: cell-based, human; conditions: 24 h, compared to control
# Method: Oxidative stress is known to increase intracellular reactive oxygen species (ROS) levels and to contribute to cell apoptosis and autophagy. To investigate whether E10 induced intracellular ROS accumulation, ROS levels in MCF-7 cells were determined by flow cytometric assay using DCFH-DA as a redox-sensitive probe.
# For the detection of intracellular ROS levels, MCF-7 cells were seeded at a density of 5 × 10^5 cells per well in a 12-well plate and treated with different concentrations of compound E10 for 24 h. The cells were collected and stained with 5 μM of DCFH-DA dye (Yeasen, Shanghai, China, 50101ES01) in the incubator for 30 min. Flow cytometry (BD) detected the stained cell samples, and the data were analyzed using FlowJo software.
# [3] = tested on: MCF-7 cells; experiment: MMP assay (JC-1, flow cytometry); format: cell-based, human; conditions: 24 h
# Method: If intracellular ROS levels rise above a certain threshold, the mitochondria may become damaged. […] In these experiments, MCF-7 cells were incubated with E10 for 24 h, and mitochondrial membrane potential (MMP) was then evaluated by flow cytometry using JC-1 as an indicator. […] These changes in the red/green fluorescence ratio are indicative of mitochondrial depolarization, a decrease in mitochondrial function, and potentially damage to mitochondria.
# MCF-7 cells were treated with different concentrations of compound E10 for 24 h. After that, the cells were collected and stained with JC-1 (Yeasen, Shanghai, China, 40706ES60) for 15 min. The cell samples were detected by flow cytometry (BD) and the data were analyzed by flowjo 10.6 software.
# [4] = tested on: MCF-7 cells; experiment: Monodansylcadaverine (MDC) staining assay for autophagy; format: cell-based, human; conditions: 24 h, compared with control; 3-MA as co-treatment with E10
# Method: To investigate whether E10 induced autophagy in MCF-7 cells, we performed Monodansylcadaverine (MDC) staining, transmission electron microscopy (TEM), and Western blot analysis to evaluate autophagy-related markers. MDC is a fluorescent probe commonly used to detect the formation of autophagic vacuoles, as it specifically labels autophagosomes.
# MDC is a staining indicator for the formation of autophagosome. MCF-7 cells were seeded at a density of 2 × 10^5 cells per well in 6-well plates. MCF-7 cells were inoculated into a 6-well plate, and the cells were treated with E10 for 24 h. The treated cells were washed twice with buffer and then stained with MDC (Beijing Solarbio Science & Technology Co., Ltd., Beijing, China) for 40 min. The cells were then detected under a fluorescence microscope (Carl Zeiss, Jena, Germany).
smiles,measurement,setting,value
"CC1(C)C2=CC(=O)N(C(=O)C=Cc3cccc(C(F)(F)F)c3)CC(C)(C)C23CCC1C3 (stereo not shown) [E10, 5,5,9,9-Tetramethyl-3-(3-(3-(trifluoromethyl)phenyl)acryloyl)-4,5,6,7,8,9-hexahydro-5a,8-methanobenzo[d]azepin-2(3H)-one]",IC50,[1],320 ± 50 nM
same,intracellular ROS levels,[2],markedly increased
same,mitochondrial membrane potential,[3],concentration-dependent reduction in MMP
same,"MDC staining, autophagosome formation",[4],significantly increased the number of punctate green fluorescence signals
